Data on four compounds can be found in ChEMBL document CHEMBL1201862, “PubChem BioAssay data set” (2004).

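48-hour exposure; five concentrations; linearly interpolated endpoints. GI50 marks 50% less growth.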 Activity calls are given as the source filed them. Cut-off read from the data, not from the text of the source: active = GI50 up to about 1.1 µM and inactive = higher. A value given as a limit tells only on which side of the number the result lay.

Some test systems named below: ACHN; BT-549; EKVX; HCT-15; HL-60; HOP-62; K562; MDA-N; NCI-H226; NCI-H23; NCI/ADR-RES; OVCAR-4; OVCAR-8; SF-268; SF-539; SK-MEL-5; SNB-19; SW-620; UACC-62; T47D.
What all share (experiment): NCI tumour cell line growth inhibition, 48 h

Take `O=C1CC[C@@]2(O)[C@H]3Cc4ccc(-c5cccc(O)c5)c5c4[C@@]2(CCN3CC2CC2)[C@H]1O5`: the GI50 is 25.4 µM (inactive) in the experiment on ACHN; 21.6 µM (inactive) with BT-549; 11.6 µM (inactive) with EKVX; 23.9 µM in the experiment on HCT-15; 0.0553 µM (active) in the experiment on HL-60; 24.8 µM (inactive) with HOP-62. In addition, the GI50 is 21.9 µM (inactive) with K562; 14.6 µM (inactive) in the experiment on MDA-N; 29.3 µM (inactive) in the experiment on NCI-H226; 27 µM (inactive) with NCI-H23; 15.8 µM (inactive) in the experiment on NCI/ADR-RES; 23.3 µM (inactive) in the experiment on OVCAR-4. Also, the GI50 in the experiment with OVCAR-8 was 19.6 µM (inactive); in the experiment on SF-268, 22.3 µM (inactive); with SF-539 it was 18.9 µM (inactive); with SK-MEL-5 it was 16.3 µM (inactive); in the experiment with SNB-19 it was 4.3 µM (inactive); in the experiment on SW-620, > 35.1 µM (inactive). Moreover, the GI50 in the experiment with UACC-62 was 10.7 µM (inactive).
Take `CCCCCCCCCCCCC(O)[C@H]1CC[C@H](C(O)CCCCCC(=O)CCCCC2CC(C(C)=O)C(=O)O2)O1` (some centres not stated): the GI50 with ACHN was 7.29 µM (inactive); in the experiment on BT-549, 15 µM (inactive); with EKVX it was 5.69 µM (inactive); in the experiment on HCT-15, 8.18 µM; in the experiment on HL-60, 2.12 µM (inactive); with HOP-62, 4.98 µM (inactive). For the same compound, the GI50 is 1.33 µM (inactive) in the experiment with K562; 3.68 µM (inactive) with MDA-N; 17.6 µM (inactive) with NCI-H226; 2.22 µM (inactive) in the experiment with NCI-H23; 3.44 µM (inactive) in the experiment with NCI/ADR-RES; 4.09 µM (inactive) in the experiment with OVCAR-4. Besides, the GI50 is 8.97 µM (inactive) with OVCAR-8; 12.3 µM (inactive) in the experiment on SF-268; 14.1 µM (inactive) in the experiment on SF-539; 0.802 µM (active) in the experiment on SK-MEL-5; 9.4 µM (inactive) in the experiment with SNB-19; 11.4 µM (inactive) in the experiment with SW-620. Also, in the experiment on UACC-62, the GI50 is 4.67 µM (inactive).
For `C/C(O[Si](C(C)C)(C(C)C)C(C)C)=C(\C)C(=O)N(C)c1ccccc1Cl`, the GI50 with ACHN is > 100 µM (inactive); in the experiment on BT-549, > 100 µM (inactive); in the experiment on EKVX, > 100 µM (inactive); with HCT-15 it was above 100 µM; in the experiment with HOP-62 it was > 100 µM (inactive); in the experiment on NCI-H226, > 100 µM (inactive). The GI50 in the experiment with NCI-H23, with NCI/ADR-RES, in the experiment with OVCAR-4, in the experiment on OVCAR-8, in the experiment on SF-268 and in the experiment with SF-539 was > 100 µM (inactive) each time. Further, the GI50 with SK-MEL-5, in the experiment with SNB-19, in the experiment with SW-620 and in the experiment on T47D was > 100 µM (inactive) throughout.
As for `COc1cc(OCc2ccccc2)c2c(CCC(=O)O)cc(=O)oc2c1.COc1cc(OCc2ccccc2)cc2oc(=O)cc(CCC(=O)O)c12`, the GI50 in the experiment on ACHN was 37.5 µM (inactive); with BT-549, 57.5 µM (inactive); with EKVX, 36.8 µM (inactive); in the experiment with HCT-15, 27 µM; in the experiment on HL-60, 34.1 µM (inactive); in the experiment with K562 it was 49 µM (inactive). The GI50 was > 100 µM (inactive) with MDA-N; 87.3 µM (inactive) in the experiment with NCI-H226; 33.9 µM (inactive) in the experiment on NCI-H23; 52.7 µM (inactive) with NCI/ADR-RES; 47.6 µM (inactive) in the experiment on OVCAR-4; 37 µM (inactive) in the experiment with OVCAR-8. Also, the GI50 with SF-268 was 61 µM (inactive); in the experiment with SF-539, 71.6 µM (inactive); in the experiment on SK-MEL-5, 70.6 µM (inactive); in the experiment on SNB-19, 92.3 µM (inactive); in the experiment with SW-620, > 100 µM (inactive); in the experiment with UACC-62 it was 63.2 µM (inactive).
